Measured values published in patent US20160083391A1, “TRICYCLIC PIPERAZINE DERIVATIVE” (Sunovion Pharmaceuticals Inc., priority 2014, published 2016).

Tested on: PDE1
Assay: In vitro HTRF PDE1 inhibition assay
Format: biochemical
Settings: HTRF cGMP assay, 100 nM cyclic GMP, PDE (1A3, 1B or 1C) with calmodulin, 45 minutes at 37° C.; isoform of the tabulated values not stated
In short: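 Activities are given as IC50 bands (<1, 1-10, >10 μM) derived from a 665/615 nm time-resolved FRET readout after d2-cGMP/anti-cGMP cryptate detection. Enzymes PDE1A3, 1B or 1C plus calmodulin were incubated 45 min at 37 °C with 100 nM cGMP, 1% DMSO, CaCl2/MgCl2 Tris buffer pH 7.4.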

SMILES	IC50 [nM]
O=c1c2cnn(C3CCCC3)c2nc2n1CCN(Cc1ccc(Cl)cc1)C2 [Compound I-75, 8-(4-Chlorobenzyl)-1-cyclopentyl-6,7,8,9-tetrahydropyrazino[1,2-a]pyrazolo[3,4-d]pyrimidin-4(1H)-one]	< 1000
O=c1c2cnc(C3CCOC3)n2nc2n1CCN(Cc1ccccc1)C2 (racemic) [Compound I-231, (±)-7-Benzyl-3-(tetrahydrofuran-3-yl)-8,9-dihydro-6H-imidazo[5,1-f]pyrazino[2,1-c][1,2,4]triazin-11(7H)-one]	< 1000
CC(C)c1nn(C)c2c(=O)n3c(nc12)CN(C)CC3 [Compound I-40, 3-Isopropyl-1,6-dimethyl-5,6,7,8-tetrahydropyrazino[1,2-a]pyrazolo[4,3-d]pyrimidin-10(1H)-one]	> 10000
CC(C)n1ncc2c(=O)n3c(nc21)C(Cc1ccccc1)N(Cc1ccccc1)CC3 (racemic) [Compound I-36, (±)-8,9-Dibenzyl-1-Isopropyl-6,7,8,9-tetrahydropyrazino[1,2-a]pyrazolo[3,4-d]pyrimidin-4(1H)-one]	> 10000
O=c1c2c(Nc3ccccc3)n[nH]c2nc2n1CCN(Cc1ccccc1)C2 [Compound I-50]	> 10000
O=c1c2onc(C3CCCC3)c2nc2n1CCN(Cc1ccc(Cl)cc1)C2 [Compound I-130, 6-(4-Chlorobenzyl)-3-cyclopentyl-7,8-dihydro-5H-isoxazolo[4,5-d]pyrazino[1,2-a]pyrimidin-10(6H)-one]	1000 to 10000
CCOc1cc(N2CCn3c(nn4c(C(C)C)ncc4c3=O)C2)ccc1F [Compound I-177, 7-(3-Ethoxy-4-fluorophenyl)-3-isopropyl-8,9-dihydro-6H-imidazo[5,1-f]pyrazino[2,1-c][1,2,4]triazin-11(7H)-one]	< 1000
CC(C)n1ncc2c(=O)n3c(nc21)CNC(c1ccccc1)C3 (racemic) [Compound I-106, (±)-1-isopropyl-7-phenyl-6,7,8,9-tetrahydropyrazino[1,2-a]pyrazolo[3,4-d]pyrimidin-4(1H)-one]	> 10000
O=c1c2cnc(C3CCC3)n2nc2n1CCN(c1ccc(Cl)cc1)C2 [Compound I-249, 7-(4-Chlorophenyl)-3-cyclobutyl-8,9-dihydro-6H-imidazo[5,1-f]pyrazino[2,1-c][1,2,4]triazin-11(7H)-one]	< 1000
CC1NCCn2c1nc1c(cnn1C(C)C)c2=O (racemic) [Compound I-4, (±)-1-Isopropyl-9-methyl-6,7,8,9-tetrahydropyrazino[1,2-a]pyrazolo[3,4-d]pyrimidin-4(1H)-one]	> 10000

More lines, now with the values ahead:

IC50 [nM]	SMILES
< 1000	CC(C)n1ncc2c(=O)n3c(nc21)CN(c1ccc(C#N)cc1)CC3 [Compound I-237, 4-(1-Isopropyl-4-oxo-6,7-dihydropyrazino[1,2-a]pyrazolo[3,4-d]pyrimidin-8(1H,4H,9H)-yl)benzonitrile]
> 10000	COc1cc(CN2CCn3c(nc4c(cnn4C(C)C)c3=O)C2)ccc1F [Compound I-139, 8-(4-Fluoro-3-methoxybenzyl)-1-isopropyl-6,7,8,9-tetrahydropyrazino[1,2-a]pyrazolo[3,4-d]pyrimidin-4(1H)-one]
1000 to 10000	CC(C)n1ncc2c(=O)n3c(nc21)CN(Cc1cnccn1)CC3 [Compound I-202, 1-Isopropyl-8-(pyrazin-2-ylmethyl)-6,7,8,9-tetrahydropyrazino[1,2-a]pyrazolo[3,4-d]pyrimidin-4(1H)-one]
< 1000	CC(C)n1ncc2c(=O)n3c(nc21)CN(Cc1ccccc1Cl)CC3 [Compound I-67, 8-(2-Chlorobenzyl)-1-isopropyl-6,7,8,9-tetrahydropyrazino[1,2-a]pyrazolo[3,4-d]pyrimidin-4(1H)-one]
< 1000	CC(C)n1ncc2c(=O)n3c(nc21)CN(c1ccc(Cl)c(Cl)c1)CC3 [Compound I-171, 8-(3,4-Dichlorophenyl)-1-isopropyl-6,7,8,9-tetrahydropyrazino[1,2-a]pyrazolo[3,4-d]pyrimidin-4(1H)-one]
